One experiment deals with T1, Rec. human uPA (Homo sapiens, UniProt P00749).
T1 construct: made in house; host or cells: Expi293 cells
The experiment is described as follows: uPA inhibition assay. In kind it is biochemical. Here is the method: (§1) The activity of acyclic and cyclic MCoFx1-5 and analogues thereof was assessed in competitive inhibition assays, as previously described in Swedberg et al. (2016) J Med Chem, 59: 7287-7292. Human β-FXIIa was obtained from Molecular Innovations, together with human FXa, human FXIa, human α-thrombin, and human plasma kallikrein. Human cationic trypsin and human plasmin were obtained from Sigma-Aldrich, and recombinant human matriptase was sourced from R&D Systems. Recombinant human urokinase (uPA) and recombinant human tissue plasminogen activator (tPA) were expressed in Expi293 cells, as previously described in Li et al. (2019) Chembiochem, 20: 46-50. FXIIa inhibition assays were performed in clear, low-binding 96-well plates using 250 μL (final volume) of assay buffer (0.1 M Tris-HCl pH 8.0, 0.1 M NaCl, 10 mM CaCl2 and 0.005% Triton X-100). Inhibitors were serially diluted and incubated with 10 nM FXIIa at room temperature to reach equilibrium. After adding 100 μM Ac-QRFR-pNA substrate (KM=162 μM), enzymatic activity was measured by monitoring release of the pNA moiety using a TECAN infinite M1000 Pro plate reader (A=405 nm, reading interval, 10 s; assay time course, 7 min). Assays were conducted in three times in duplicate. Substrate kinetic constants (Michaelis-Menten) and inhibition constants (Morrison K) were determined by non-linear regression using Prism 7 (GraphPad). Selectivity assays with off-target proteases were performed in a similar way, except that different concentrations of enzyme and substrate were used, as indicated in Table 16. For assays using a fluorescent substrate (peptide-4-methylcoumaryl-7-amide, MCA), black low-binding 96-well plates were used and activity was measured using a TECAN infinite M1000 pro plate reader (λex 360 nm, λem 460 nm, reading interval, 30 s; assay time course, 5-30 min).

A further experiment concerns the target T2, Rec. human tPA (Homo sapiens, UniProt P00750).
T2 construct: made in house; host or cells: Expi293 cells
The experiment is described as follows: tPA inhibition assay. In kind it is biochemical. Here is the method:
as §1

The target of the next experiment is T3, Human FXa (Homo sapiens, UniProt P00742).
T3 construct: Human β-FXIIa was obtained from Molecular Innovations, together with human FXa, human FXIa, human α-thrombin, and human plasma kallikrein; purchased Molecular Innovations; host or cells: purified from human plasma
T3 sequence (P00742 235-488 limits assumed): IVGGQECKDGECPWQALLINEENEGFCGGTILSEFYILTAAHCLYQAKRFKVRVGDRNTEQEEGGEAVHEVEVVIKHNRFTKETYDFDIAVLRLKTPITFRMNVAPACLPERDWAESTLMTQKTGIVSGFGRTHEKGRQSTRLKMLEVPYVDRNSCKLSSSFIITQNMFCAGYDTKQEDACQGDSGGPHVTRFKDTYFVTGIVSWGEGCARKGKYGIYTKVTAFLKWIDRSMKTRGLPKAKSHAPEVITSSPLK
T3 sequence (P00742 41-179 partner limits assumed): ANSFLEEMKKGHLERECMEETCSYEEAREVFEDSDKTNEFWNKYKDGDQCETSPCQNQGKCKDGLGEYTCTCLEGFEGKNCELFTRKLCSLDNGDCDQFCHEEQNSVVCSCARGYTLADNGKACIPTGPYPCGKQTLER
The experiment is described as follows: FXa inhibition assay. In kind it is biochemical. On the procedure:
as §1

In a further experiment the target is T4, bovine trypsin (Bos taurus, UniProt P00760).
T4 sequence (P00760 24-246): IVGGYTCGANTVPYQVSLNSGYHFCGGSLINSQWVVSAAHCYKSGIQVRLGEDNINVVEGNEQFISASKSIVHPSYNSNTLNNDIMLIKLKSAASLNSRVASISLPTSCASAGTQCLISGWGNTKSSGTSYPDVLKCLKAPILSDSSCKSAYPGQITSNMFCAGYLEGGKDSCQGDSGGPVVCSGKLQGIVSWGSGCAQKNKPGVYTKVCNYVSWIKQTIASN
As to the kind of experiment: Surface plasmon resonance binding to trypsin. On the technique in general: SPR reads the build-up and loss of mass on a sensor chip optically.

Another experiment concerns the target T5, Human plasmin (Homo sapiens, UniProt P00747).
T5 construct: Human cationic trypsin and human plasmin were obtained from Sigma-Aldrich, and recombinant human matriptase was sourced from R&D Systems; purchased Sigma-Aldrich; host or cells: purified from human plasma
As to the kind of experiment: Plasmin inhibition assay. In kind it is biochemical. Here is the method: as §1

The next experiment has as its target T6, Human β-FXIIa (Homo sapiens, UniProt P00748).
T6 construct: Human β-FXIIa was obtained from Molecular Innovations, together with human FXa, human FXIa, human α-thrombin, and human plasma kallikrein; purchased Molecular Innovations; host or cells: purified from human plasma
As to the kind of experiment: FXIIa competitive inhibition assay, colorimetric substrate Ac-QRFR-pNA. In kind it is biochemical. An outline of the steps: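 Enzyme and substrate levels differ per protease. Inhibitor–enzyme mixtures reach equilibrium at room temperature at pH 8.0 with 10 mM CaCl2 before substrate addition; continuous absorbance (405 nm) or fluorescence (360/460 nm) readout gives Morrison Ki.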

Experiment [1] relates to clotting via the intrinsic pathway. The experiment is described as follows: Activated partial thromboplastin time (aPTT) assay in human plasma. In kind it is biochemical. An excerpt: Citrated, platelet-poor plasma samples from healthy adults were collected, prepared, and stored using previously established collection protocols, such as in Zdenek et al. (2019) Toxicol in Vitro, 58: 97-109.
Standard coagulation assays were used to determine the effect of the inhibitors on the clotting time of human plasma. Activated partial thromboplastin time (aPTT) uses a Kaolin reagent (clay) to activate the intrinsic/contact pathway of the coagulation cascade, whereas prothrombin time (PT) uses Neoplastine (lyophilized thromboplastin prepared from rabbit cerebral tissue) to activate the extrinsic/tissue-factor pathway of the coagulation cascade. A minor adjustment was made to both tests (addition of 25 μL inhibitor or buffer; refer to Table 17) to accommodate the addition of an inhibitor without changing the total volume (and therefore relative ratios of additives) of the assay. Concentrations of inhibitor are reported as the concentration at the point of incubation in the assay, i.e. not taking into account the addition of the start reagent (calcium for aPTT, or Neoplastine for PT).
Clotting time (seconds) of plasma was automatically measured using a STA-R Max® analyzer (Stago, Asnieres sur Seine, France). Measurements were conducted using a viscosity-based (mechanical) detection system, whereby opposing magnets oscillate a small metal spherical pellet inside the test cuvette (250 μL total volume) until a clot is formed. Dilution of the inhibitor in Owren-Koller (OK) buffer for dose-response curves was performed automatically by the machine. Reagents were kept at 15-19° C. in the machine during experimentation and otherwise stored at 4° C. All tests were performed in triplicate.

In experiment [2] the target is T7, biotinylated human β-FXIIa (Homo sapiens, UniProt P00748).
T7 construct: purchased Molecular Innovations
T7 sequence (P00748 373-615 limits assumed, other chains not shown): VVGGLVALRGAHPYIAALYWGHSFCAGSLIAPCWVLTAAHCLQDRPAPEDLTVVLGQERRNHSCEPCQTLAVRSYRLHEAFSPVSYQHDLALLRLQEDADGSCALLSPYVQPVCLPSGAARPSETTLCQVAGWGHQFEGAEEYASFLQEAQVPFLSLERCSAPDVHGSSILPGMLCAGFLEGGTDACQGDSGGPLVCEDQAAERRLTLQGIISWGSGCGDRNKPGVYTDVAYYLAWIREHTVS
The experiment is described as follows: Surface plasmon resonance binding to FXIIa. An outline of the steps:
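Biacore T200 SPR with biotinylated β-FXIIa captured on a CAP chip, running buffer HBS-EP+ pH 7.4. Peptides injected as a concentration series, surface regenerated after each cycle; kinetics modelled with a 1:1 binding model.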

Each structure is given as a SMILES string. Bridge positions count the residues as written; N and C are the ends. Peptide text beside a SMILES is read from it.

T6 sequence (P00748 373-615 limits assumed, other chains not shown): as above
T5 sequence (P00747 581-810 limits assumed): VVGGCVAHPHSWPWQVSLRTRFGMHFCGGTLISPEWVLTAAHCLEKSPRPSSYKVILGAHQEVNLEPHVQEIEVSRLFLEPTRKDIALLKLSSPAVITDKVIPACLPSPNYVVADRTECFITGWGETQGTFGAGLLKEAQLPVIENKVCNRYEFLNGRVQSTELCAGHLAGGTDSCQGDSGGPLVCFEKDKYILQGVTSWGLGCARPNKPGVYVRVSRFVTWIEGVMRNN
T5 sequence (P00747 97-580 partner limits assumed): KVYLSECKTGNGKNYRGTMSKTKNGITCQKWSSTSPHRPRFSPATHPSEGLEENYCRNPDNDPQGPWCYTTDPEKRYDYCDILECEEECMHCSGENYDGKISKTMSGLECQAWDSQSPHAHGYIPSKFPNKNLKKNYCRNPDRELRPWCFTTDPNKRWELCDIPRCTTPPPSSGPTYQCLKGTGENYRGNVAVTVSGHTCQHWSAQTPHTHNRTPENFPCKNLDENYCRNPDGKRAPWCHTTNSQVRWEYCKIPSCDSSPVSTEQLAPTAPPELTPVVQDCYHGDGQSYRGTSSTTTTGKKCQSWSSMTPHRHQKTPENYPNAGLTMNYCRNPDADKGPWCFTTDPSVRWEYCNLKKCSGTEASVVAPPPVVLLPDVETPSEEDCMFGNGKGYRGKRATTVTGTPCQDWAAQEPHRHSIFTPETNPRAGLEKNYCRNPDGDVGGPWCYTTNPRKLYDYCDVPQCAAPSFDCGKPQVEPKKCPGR
T2 sequence (P00750 36-562): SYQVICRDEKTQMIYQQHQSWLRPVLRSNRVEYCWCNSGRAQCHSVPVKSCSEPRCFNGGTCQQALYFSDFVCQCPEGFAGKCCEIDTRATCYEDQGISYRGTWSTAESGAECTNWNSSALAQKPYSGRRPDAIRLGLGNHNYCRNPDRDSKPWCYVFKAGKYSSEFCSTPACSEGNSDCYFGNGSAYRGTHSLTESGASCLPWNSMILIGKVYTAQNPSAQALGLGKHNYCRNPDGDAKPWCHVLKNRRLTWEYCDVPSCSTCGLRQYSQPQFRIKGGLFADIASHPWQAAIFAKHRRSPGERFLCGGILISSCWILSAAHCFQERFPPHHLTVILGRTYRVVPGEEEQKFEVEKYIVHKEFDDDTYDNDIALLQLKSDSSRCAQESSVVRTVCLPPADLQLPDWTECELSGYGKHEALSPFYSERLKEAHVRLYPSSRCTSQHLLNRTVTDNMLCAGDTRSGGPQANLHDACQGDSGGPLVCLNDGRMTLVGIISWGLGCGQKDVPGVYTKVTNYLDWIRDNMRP

For orientation: inhibition means the share of the control response that was lost under treatment. What is called IC50 is the point on the concentration scale where inhibition reaches its midpoint. The Kd is the equilibrium constant for the complex coming apart. By Ki is commonly meant the dissociation constant of the complex between target and ligand, obtained from inhibition or displacement. Turning to `CC[C@H](C)[C@@H]1NC(=O)CNC(=O)CNC(=O)[C@H](CC(=O)O)NC(=O)[C@H](Cc2ccc(O)cc2)NC(=O)CNC(=O)[C@H](CO)NC(=O)CNC(=O)[C@@H]2CSSC[C@@H]3NC(=O)[C@H](CC(=O)O)NC(=O)[C@H](CO)NC(=O)[C@H](CC(=O)O)NC(=O)[C@H](CCCNC(=N)N)NC(=O)[C@H](CCCNC(=N)N)NC(=O)[C@@H]4CSSC[C@H](NC(=O)[C@H]([C@@H](C)CC)NC(=O)[C@H](CSSC[C@H](NC1=O)C(=O)N1CCC[C@H]1C(=O)N[C@@H](CCCNC(=N)N)C(=O)N[C@@H]([C@@H](C)CC)C(=O)NCC(=O)N[C@@H](CCCNC(=N)N)C(=O)N[C@@H](CC(C)C)C(=O)N4)NC(=O)[C@H](C)NC(=O)CNC(=O)[C@@H]1CCCN1C3=O)C(=O)N[C@@H](CCCNC(=N)N)C(=O)N[C@@H](C)C(=O)N[C@@H]([C@@H](C)O)C(=O)N[C@@H](CCCNC(=N)N)C(=O)N[C@@H](Cc1ccccc1)C(=O)N2` [MCoFx1 cyclic] (cyclo(ACICRATRFCGSGYDGGICPRIGRLCRRDSDCPG); disulfide 2-19, 4-26, 10-32), the inhibition at 5 µM worked out at 0% on Rec. human uPA (at 5 μM, read-out: percent inhibition uPA); 0% at Rec. human tPA (at 5 μM, read-out: percent inhibition tPA); 0% at Human FXa (at 5 μM, read-out: percent inhibition FXa); 13% at Human plasmin (at 5 μM, read-out: percent inhibition Plasmin). For the same compound, the IC50 on Rec. human uPA (read-out: IC50 uPA), on Rec. human tPA (read-out: IC50 tPA), at Human FXa (read-out: IC50 FXa) and at Human plasmin (read-out: IC50 Plasmin) was > 5000 nM each time. For the same compound, the Kd stood at 31.5 nM at bovine trypsin (Table 8, cyclic form, read-out: KD (nM) Trypsin Cyclic) and 0.9 ± 0.04 nM in experiment [2] (Table 7, FXIIa, cyclic form of the peptide, read-out: KD (nM) Cyclic). For the same compound, the “fold lower affinity for trypsin compared with MCoTI-II” value on bovine trypsin (ratio of KD values) was found to be 300 fold. Besides, the Ki at Human β-FXIIa (Table 7, FXIIa, cyclic form of the peptide, read-out: Ki (nM) Cyclic) was found to be 0.37 ± 0.04 nM. The “fold more potent than MCoTI-II (FXIIa Ki)” value on Human β-FXIIa (ratio of Ki values) is 350 fold. At Human β-FXIIa (selectivity), the “difference in Ki FXIIa versus trypsin” value is reported as “exceeds three orders of magnitude”. The “EC2× (concentration required to double the clotting time)” value in experiment [1] is recorded as 702 nM. Further, the “fold higher affinity for FXIIa than MCoTI-II” value in experiment [2] (ratio of KD values) was found to be 60 fold.

Source of the values: US20240344241A1, “PROTEINACEOUS MOLECULES AND USES THEREFOR” (THE UNIVERSITY OF QUEENSLAND, priority 2021, published 2024).
